The values below come from patent publication EP0336753A1, “Improvements in or relating to propanamine derivatives” (ELI LILLY AND COMPANY, priority 1988, dated 1989).

One assay has as its target T1, serotonin (5HT) uptake (Rattus norvegicus, UniProt P31652).
T1 construct: Crude synaptosomal preparations were isolated after differential centrifugation; from tissue; host or cells: rat cerebral cortex, crude synaptosomes
The experiment in a line: Inhibition of synaptosomal uptake of 3H-serotonin in vitro. Format: biochemical, rats. The conditions noted are these: for inhibition at 1 µM: 1000 nM test compound, number in parentheses, read-out: percent inhibition at 1000 nM (5HT). On the procedure: (§1) This general procedure is set forth by Wong et al., in Drug Development Research 6:397-403 (1985).
(§2) Male Sprague-Dawley rats (110-150 g) from Harlan Industries (Cumberland, IN) were fed a Purina Chow ad libitum for at least 3 days before being used in the studies. Rats were killed by decapitation. Whole brains were removed and dissected. Cerebral cortex was homogenized in 9 volumes of a medium containing 0.32 M sucrose and 10 mM glucose. Crude synaptosomal preparations were isolated after differential centrifugation at 1,000 g for 10 min. and 17,000 g for 28 min. The final pellets were suspended in the same medium and kept in ice until use within the same day.
(§3) Synaptosomal uptake of ³H-serotonin(³H-5-hydroxytryptamine, ³H-5HT) and ¹⁴C-ℓ-norepinephrine (¹⁴C-NE) was determined as follows. Cortical synaptosomes (equivalent to 1 mg of protein) were incubated at 37°C for 5 min in 1 ml of Krebs-bicarbonate medium containing also 10 mM glucose, 0.1 mM iproniazid, 1 mM ascorbic acid, 0.17 mM EDTA, 50nM, ³H-5HT and 100 nM ¹⁴C-NE. The reaction mixture was immediately diluted with 2 ml of ice-chilled Krebs-bicarbonate buffer and filtered under vacuum with a cell harvester (Brandel, Gaithersburg, MD). Filters were rinsed twice with approximately 5 ml of ice-chilled 0.9% saline and were transferred to a counting vial containing 10 ml of scintillation fluid (PCS, Amersham, Arlington Heights, IL). Radioactivity was measured by a liquid scintillation spectrophotometer. Accumulation of ³H-5HT and ¹⁴C-NE at 4°C represented the background and was subtracted from all samples.
(§4) The results of the evaluation of various compounds of the present invention are set forth below in Table I. In the Table, column 1 identifies the Example number of the compounds evaluated, and columns 2 and 3 provide the concentration of the test compound at 10⁻⁹M (nM) needed to inhibit 50% of serotonin (5HT) or norepinephrine, respectively, and is indicated in the Table as IC₅₀. The numbers in parentheses represent percent inhibition at 1000 nM.

The target of assay [1] is T2, norepinephrine (NE) uptake (Rattus norvegicus, UniProt Q63380).
T2 construct: Crude synaptosomal preparations were isolated after differential centrifugation; from tissue; host or cells: rat cerebral cortex, crude synaptosomes
T2 sequence (Q63380 1-617): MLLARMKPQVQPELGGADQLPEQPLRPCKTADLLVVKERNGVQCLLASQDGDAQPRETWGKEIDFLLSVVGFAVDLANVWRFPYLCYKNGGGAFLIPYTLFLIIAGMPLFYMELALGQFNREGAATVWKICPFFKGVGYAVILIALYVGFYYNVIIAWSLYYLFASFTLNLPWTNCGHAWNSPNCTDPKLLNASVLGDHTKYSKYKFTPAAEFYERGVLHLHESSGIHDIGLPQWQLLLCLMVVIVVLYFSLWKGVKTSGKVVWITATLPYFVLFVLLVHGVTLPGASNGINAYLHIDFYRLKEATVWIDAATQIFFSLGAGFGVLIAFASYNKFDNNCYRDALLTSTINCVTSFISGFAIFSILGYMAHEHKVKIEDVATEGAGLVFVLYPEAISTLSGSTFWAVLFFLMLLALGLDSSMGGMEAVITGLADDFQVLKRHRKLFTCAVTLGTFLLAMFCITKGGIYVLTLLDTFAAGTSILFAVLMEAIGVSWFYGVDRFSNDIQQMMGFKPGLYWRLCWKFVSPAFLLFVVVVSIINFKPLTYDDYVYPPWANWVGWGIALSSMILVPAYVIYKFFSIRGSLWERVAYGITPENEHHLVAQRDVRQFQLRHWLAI
As to the kind of experiment: Inhibition of synaptosomal uptake of 14C-l-norepinephrine in vitro. The conditions noted are these: for inhibition at 1 µM: read-out: percent inhibition at 1000 nM (NE); for IC50: 100 nM ¹⁴C-NE, 37°C for 5 min, read-out: IC₅₀(nM) NE. Type of assay: biochemical, rats. On the procedure:
as §1, §2, §3, §4

Setting [2] is: rat cerebral cortex synaptosomes.
[3] abbreviates: 1000 nM test compound, number in parentheses, rat cerebral cortex synaptosomes.

pIC50: −log10 of the molar value. Where two headings read alike, the source gives them in different places. Some results are limits rather than exact numbers.

The term inhibition denotes the change of the read-out against control, counted positive when it falls. For orientation: pIC50 means the negative decadic logarithm of the IC50, by convention in mol/L. High values mean a small IC50, low ones a large IC50.

T1 sequence (P31652 whole entry): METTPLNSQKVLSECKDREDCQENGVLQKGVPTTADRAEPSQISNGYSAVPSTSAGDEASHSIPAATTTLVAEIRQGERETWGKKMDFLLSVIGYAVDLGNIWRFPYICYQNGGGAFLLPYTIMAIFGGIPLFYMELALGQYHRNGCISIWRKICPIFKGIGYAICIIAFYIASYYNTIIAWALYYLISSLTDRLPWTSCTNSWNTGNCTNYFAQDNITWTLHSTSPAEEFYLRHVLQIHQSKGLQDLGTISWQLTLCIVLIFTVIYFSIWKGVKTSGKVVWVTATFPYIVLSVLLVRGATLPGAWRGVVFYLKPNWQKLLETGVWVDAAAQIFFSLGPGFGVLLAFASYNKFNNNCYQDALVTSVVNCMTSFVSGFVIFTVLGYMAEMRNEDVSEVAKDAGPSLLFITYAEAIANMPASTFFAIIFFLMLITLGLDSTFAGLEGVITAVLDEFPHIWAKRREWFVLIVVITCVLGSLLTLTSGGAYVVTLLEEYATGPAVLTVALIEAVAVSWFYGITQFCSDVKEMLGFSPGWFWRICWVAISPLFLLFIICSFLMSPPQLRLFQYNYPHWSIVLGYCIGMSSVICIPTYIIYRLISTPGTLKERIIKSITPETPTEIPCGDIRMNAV

On to `CNCCC(Oc1ccc(SC(F)(F)F)cc1)c1ccccc1` (centres unmarked) [Example 3, N-Methyl-γ-{4-[trifluoromethyl)thio]phenoxy}benzenepropanamine ethanedioate], for which the inhibition at 1 µM amounted to 39% at serotonin (5HT) uptake (setting [2]) and 9% in assay [1] (setting [3]). The IC50 was > 1000 nM on serotonin (5HT) uptake (rat cerebral cortex synaptosomes, 50 nM ³H-5HT, 37°C for 5 min, read-out: IC₅₀(nM) 5HT) and > 1000 nM in assay [1] (setting [2]).

`CNCCC(Oc1ccc(SC)cc1)c1ccccc1` (centres unmarked) [Example 2, N-Methyl-γ-[4-(methylthio)phenoxy]benzenepropanamine ethanedioate]: the pIC50 at serotonin (5HT) uptake was 7.32. Also, in assay [1] (setting [2]), the IC50 came out at 704 nM.

`CSc1ccc(OC(CCN(C)C)c2ccccc2)cc1` (centres unmarked) [Example 1, N,N-Dimethyl-γ-[4-(methylthio)phenoxy]benzenepropanamine ethanedioate]: at serotonin (5HT) uptake, the pIC50 is 6.80. Further, the IC50 in assay [1] (setting [2]) is > 1000 nM. Also, the inhibition at 1 µM in assay [1] worked out at 18%.

`CN(C)CCC(Oc1ccc(NS(C)(=O)=O)cc1)c1ccccc1` (centres unmarked) [Example 5, N-{4-[1-Phenyl-3-(dimethylamino)propoxy]phenyl}methanesulfonamide]: the negative-log IC50 (pIC50) at serotonin (5HT) uptake is < 6.00. Moreover, the results for the inhibition at 1 µM (on serotonin (5HT) uptake (setting [2]); in assay [1] (setting [3])) were 30% and 15%, respectively. Further, the IC50 in assay [1] (setting [2]) was > 1000 nM.

For the molecule `CN(C)CCC(Oc1ccc(S(N)(=O)=O)cc1)c1ccccc1` (centres unmarked) [Example 4, 4-[3-(Dimethylamino)-1-phenylpropoxy]benzenesulfonamide ethanedioate], the pIC50 at serotonin (5HT) uptake was < 6.00. Further, the inhibition at 1 µM at serotonin (5HT) uptake (setting [2]) turned out to be 15%; in assay [1], 0%. The IC50 in assay [1] (setting [2]) was > 1000 nM.
